Among the data in US7741464B2, “Compositions and methods of using CRMP-1 and its fragments for treating cancer” (Advpharma Inc., priority 2007, dated 2010) are IC50 and growth inhibition effect values, retold here.

pIC50: −log10 of the molar value. Read-outs that look alike come from different tables or passages of the source.

As usually defined, the pIC50 is the IC50 on a negative log10 scale, so that one unit is a factor of ten.

Experiment [1] relates to PZ-HPV-7 cells. Description: Chemosensitivity (MTT cytotoxicity) assay. The note with it: Homo sapiens; PZ-HPV-7, MTT; read-out: IC50 of chemical agent. It is filed as cell-based.
Description: Three agents, including caffeic acid phenethyl ester (CAPE; Sigma, US), Adriamycin™ (doxorubicin) (Pharmacia & Upjohn S.P.A. Milan, Italy), and paclitaxel (Taxol; Bristol-Myers Squibb Co., Wallingford, Conn.), were dissolved in DMSO (dimethyl sulfoxide; Sigma) for preparation of stock solution, respectively. A serial dilution was prepared with DPBS buffer for chemosensitivity tests. […] Both types of prostate stable transfectants were only treated with paclitaxel for eight concentrations ranging from 0.1 mM to 1.28 nM with 1/5 dilution each step.
Experiment [2] deals with PC-3 transient transfectants. The experiment can be described thus: Chemosensitivity of transient transfectants (cell counting). The format is cell-based. To be noted: Homo sapiens, 72 h, read-out: IC50 of chemical agent. On the procedure:
(§1) Six human cancer cell lines, including human colon cancer cell lines Caco-2, CC-M1, DLD-1; human prostate cancer cell lines DU145, PC-3; and human breast cancer cell line MCF-7, were tested in an experiment on improvement of chemosensitivity. Two expression plasmids, pNCRMP1 and pNCN3, and the pCI-neo vector (control plasmid), were used for transfection, respectively. The general cultivation conditions and transfection procedures were the same as described in Example 3.
(§2) Treatment of transient transfected cell lines using chemical agent was immediately performed as follows, and quantification of viable cells was performed by counting using hemocytometer after 3-days incubation at 37° C.: • (1) Three types of transient transfected human colorectal cancer cells were treated with 5-fluorouracil; • (2) The transient transfected human prostate cancer cell line DU145 was treated with Adriamycin™ (doxorubicin), cyclophosphamide and etoposide; • (3) The transient transfected human prostate cancer cell line PC3 was treated with cyclophosphamide, etoposide, and paclitaxel; and, • (4) The transient transfected human breast cancer cell line MCF-7 was treated with Adriamycin™ (doxorubicin) and paclitaxel.

Experiment [3] deals with MCF-7 transient transfectants. The experiment is described as above. It is filed as cell-based. To be noted: Homo sapiens, MCF7, 72 h, read-out: IC50 of chemical agent. On the procedure:
as §1, §2

Experiment [4] relates to DU145 stable transfectants. The experiment can be described thus: Chemosensitivity (MTT cytotoxicity) of stable transfectants. The format is cell-based. To be noted: Homo sapiens, read-out: IC50 of chemical agent. From the text:
(§3) Three human cancer cell lines, including lung cancer cell line H520 and two human prostate cancer cell lines (PC-3 and DU145) were applied for selection of stable transfectants. Four expression plasmids, including pNCRMP1, pNCN1, pNCN3, and pNCN4, and the pCI-neo vector (as control plasmid) were used for transfection, respectively. The general cultivation condition and transfection procedures were the same as described in Example 3. The transfected cells were further cultivated under the same conditions as their parental cell lines and selected with 0.6-1 mg antibiotic G418 per ml (Kao et al., Oncogene 16: 546-554 (1998); Xiaolin et al, Cancer Research 65: 9762-9770 (2005)).
(§4) Three agents, including caffeic acid phenethyl ester (CAPE; Sigma, US), Adriamycin™ (doxorubicin) (Pharmacia & Upjohn S.P.A. Milan, Italy), and paclitaxel (Taxol; Bristol-Myers Squibb Co., Wallingford, Conn.), were dissolved in DMSO (dimethyl sulfoxide; Sigma) for preparation of stock solution, respectively. A serial dilution was prepared with DPBS buffer for chemosensitivity tests. The human lung squamous carcinoma stable transfectants H520 were treated with both CAPE and Adriamycin™ (doxorubicin) for four different concentrations, e.g. 0.05, 0.01, 0.002, and 0.0004 mM, while the administering of paclitaxel was performed at different concentrations, e.g. 1000, 200, 40, and 8 nM. Both types of prostate stable transfectants were only treated with paclitaxel for eight concentrations ranging from 0.1 mM to 1.28 nM with 1/5 dilution each step.
(§5) MTT (3-(4,5-dimethylthiazol-2-yl)-2,5-diphenyltetrazolium bromide; Sigma, Inc.) assay (Monks et al., J. Natl. Cancer Inst. 83:757-766 (1991); Paull et al, J. Natl. Cancer Inst. 81:1088-1092 (1989)) was applied for studying the cytotoxic effect of indicated agent. The absorbance was measured both at 545 nm and at 690 nm (served as reference) using the 96-well spectrophotometer reader (Emax, Molecular Device Inc., California, US) (Chen et al., Yi Xue Za Zhi (Taipei) 46:7-16 (1990)). The relative growth inhibition was calculated as follows: Relative growth inhibition=100%×(1−(OD545nm (Treated cells)−OD690nm(Treated cells))÷(OD545nm(untreated cells)−OD690nm(untreated cells)))
(§6) The 50% inhibition concentration (IC50) was determined after graphical plotting of spectrophotometric measurements and interpolation by EXCEL software.

Experiment [5] relates to H520 stable transfectants. The description is as above. It is filed as cell-based. To be noted: Homo sapiens, read-out: IC50 of chemical agent.
Description: as §3, §4, §5, §6

For experiment [6], the system named is PZ-HPV-7 cells. Description: Cytotoxic effect of recombinant e-rCN3 protein. The format is cell-based, human. To be noted: 5 μM applied twice for 6 hours with an interval of 16 hours. As for the experimental part: (§7) The growth inhibition effect of recombinant e-rCN3 protein was studied with five human cell lines, including the human colon cancer cell line CC-M1, the human breast cancer cell line MCF-7, two human prostate cancer cell lines PC-3 and DU145, and the human prostate epithelium cell line PZ-HPV-7. […] The cytotoxicity assay were performed using MTT method as described by Monks et al. (J. National Cancer Institute 83:757-767 (1991)) or using cell counting-based Hemocytometer method (R. Ian Freshney, WILEY-LISS: 186, 309-312 (2000)) as described in Example 3 and Example 9. Five micromolar (μM) e-rCN3 was applied twice on three prostate cell lines for 6 hours with an interval of 16 hours, while the human colon cancer cell and breast cancer cells were treated with three cycles.

In a further experiment the test system is MCF-7 cells. Description: Cytotoxic effect of recombinant e-rCN3 protein. It is filed as cell-based, human. The note with it: 5 μM, three treatment cycles. On the procedure: as §7
A further experiment deals with CC-M1 cells. The experiment can be described thus: Cytotoxic effect of recombinant e-rCN3 protein. The format is cell-based, human. To be noted: 5 μM, three treatment cycles. As for the experimental part: as §7
In a further experiment the test system is PC-3 cells. The experiment can be described thus: Cytotoxic effect of recombinant e-rCN3 protein. The format is cell-based, human. To be noted: 5 μM applied twice for 6 hours with an interval of 16 hours. On the procedure:
as §7

For the molecule `CC(=O)O[C@H]1C(=O)[C@@]2(C)[C@H]([C@H](OC(=O)c3ccccc3)[C@]3(O)C[C@H](OC(=O)[C@H](O)[C@@H](NC(=O)c4ccccc4)c4ccccc4)C(C)=C1C3(C)C)[C@]1(OC(C)=O)CO[C@@H]1C[C@@H]2O` [paclitaxel], the pIC50 was 5.19 with PZ-HPV-7 cells [1]; 7.06 in [2] (transient transfectant PC-3/pCIneo (control plasmid), 3-days incubation); 8.00 in [2] (transient transfectant PC-3/pNCN3, 3-days incubation); 7.16 in [2] (transient transfectant PC-3/pNCRMP1, 3-days incubation); more than 9.00 in experiment [3] (transient transfectant MCF-7/pCIneo (control plasmid), 3-days incubation); 7.36 in experiment [3] (transient transfectant MCF-7/pNCN3, 3-days incubation). Further, the pIC50 is more than 9.00 in [3] (transient transfectant MCF-7/pNCRMP1, 3-days incubation); 5.10 in [4] (DU-145, stable transfectant DU145/pCI-neo/7 (control plasmid), MTT); 7.70 in experiment [4] (DU-145, stable transfectant DU145/pNCRMP1/2, MTT); 7.51 in experiment [5] (NCI-H520, stable transfectant H520/pCI-neo/1 (control plasmid), MTT); 7.92 in experiment [5] (NCI-H520, stable transfectant H520/pNCN1/1, MTT); more than 8.10 in experiment [5] (NCI-H520, stable transfectant H520/pNCN3/1, MTT). Also, the pIC50 in experiment [5] (NCI-H520, stable transfectant H520/pNCN4/1, MTT) was more than 8.10; in experiment [5] (NCI-H520, stable transfectant H520/pNCRMP1/1, MTT), 7.92.
In the case of “e-rCN3: recombinant CN3 domain of hCRMP-1 (amino acids 208 to 480) expressed in E. coli from pE22bCN3”, the growth inhibition effect entry with PZ-HPV-7 cells [6] is “no growth inhibition effect”; in the experiment with MCF-7 cells, “over 60%”; in the experiment on CC-M1 cells it was “over 60%”; in the experiment with PC-3 cells it was “approximately 40%”.
